The test system of data set [1] is mismatched 12-mer modified or unmodified ODNs of 3′-d(CCCCCCCCCCCC). Description: Base-discriminating properties: UV melting with mismatched ODNs. The class given is binding. The conditions noted are these: with mismatched 12-mer modified or unmodified 3′-d(CCCCCCCCCCCC).
Data set [2] deals with complementary chains of modified and unmodified ODNs. The data set is described as follows: Thermal denaturation studies (UV melting, Tm) of ODN duplexes. The class given is binding. The conditions noted are these: for Tm: modified oligomer bound to its complementary unmodified oligomer.

Regarding “Modified d(AAAAAAAAAAAA) (SEQ ID NO: 1) Containing Diphosphodiester Internucleotide Linkage (DNA, backbone not given here; contains diphosphodiester internucleotide linkage(s), further chemistry not fully specified) [Compound 13]”, the melting transition entry in data set [1] is “no melting transition was observed”. Moreover, the Tm (as a rule, the temperature at which the thermal transition is half complete) in data set [2] amounted to 39.7 °C. As to “Modified d(TATATATATATA) (SEQ ID NO: 6) Containing Diphosphodiester Internucleotide Linkage (DNA, backbone not given here; contains a diphosphodiester internucleotide linkage) [Compound 18]”, the ΔTm entry in data set [2] was “+3.2 °C”.

Take “Modified d(TTTTTTTTTTTT) (SEQ ID NO: 2) Containing Diphosphodiester Internucleotide Linkage (diphosphodiester internucleotide linkage) [Compound 14]”: in data set [2], the Tm is 39.5 °C. Consider “Modified d(GGGGGGGGGGGG) (SEQ ID NO: 4) Containing Diphosphodiester Internucleotide Linkage [Compound 16]”, for which the “binding affinity towards modified 3′-d(CCCCCCCCCCCC) compared with unmodified 3′-d(CCCCCCCCCCCC)” value in data set [2] was “higher binding affinity”. As to “Modified d(ATATATATATAT) (SEQ ID NO: 5) Containing Diphosphodiester Internucleotide Linkage (DNA, backbone not given here; contains a diphosphodiester internucleotide linkage) [Compound 17]”, the ΔTm result in data set [2] was “+1.8 °C”.

The record behind these values is patent publication US8193384B2, “Polymer-bound phosphitylating reagents for the synthesis of organophosphorus compounds” (priority 2005, dated 2012).
